Calls of active or inactive are those of the source.
Legend:
CHO = assay: cytotoxicity in TLR9-MyD88 CHO cells, dose response, cytotoxicity control for TLR9-MyD88 binding inhibitor project, cell-based, luminescence (AID 588339); assay type: functional, hamster; conditions: Cricetulus griseus;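 note: CHO cells stably coexpressing TLR9 and MyD88 fusions from primary screen; compound exposure lasted 48 hours before viability readout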
[1] = biological target: Type-1 angiotensin II receptor (Homo sapiens, UniProt P30556); assay: AT1 receptor antagonists, dose response, selectivity assay for APJ receptor antagonist project, cell-based, uHTS hits (AID 463214); assay type: functional;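 note: antagonist potency against angiotensin II stimulated AT1 response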
Sequence of Type-1 angiotensin II receptor (P30556 whole entry): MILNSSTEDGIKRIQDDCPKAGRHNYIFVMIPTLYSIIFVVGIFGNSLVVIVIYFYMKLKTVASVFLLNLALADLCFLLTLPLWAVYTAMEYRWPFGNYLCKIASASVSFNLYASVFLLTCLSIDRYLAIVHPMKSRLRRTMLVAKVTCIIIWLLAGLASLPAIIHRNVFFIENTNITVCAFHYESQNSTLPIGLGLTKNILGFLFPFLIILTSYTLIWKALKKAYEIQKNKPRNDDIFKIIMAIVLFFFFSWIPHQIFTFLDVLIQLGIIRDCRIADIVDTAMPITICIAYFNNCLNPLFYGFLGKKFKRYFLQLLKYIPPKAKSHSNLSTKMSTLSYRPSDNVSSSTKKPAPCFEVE

BJ [2] = assay: cells; assay type: functional, cell-based; conditions: Homo sapiens
[3] = biological target: T1, Sphingosine 1-phosphate receptor 4 (Homo sapiens, UniProt O95977); assay: Fluorescence dose response cell-based high throughput screening assay for antagonists of the Sphingosine 1-Phosphate Receptor 4 (S1P4). [Related pubchem assays: 1524 (Confirmation in triplicates.), 1510 (Primary screen.)]; assay type: functional
T1 sequence (O95977 whole entry): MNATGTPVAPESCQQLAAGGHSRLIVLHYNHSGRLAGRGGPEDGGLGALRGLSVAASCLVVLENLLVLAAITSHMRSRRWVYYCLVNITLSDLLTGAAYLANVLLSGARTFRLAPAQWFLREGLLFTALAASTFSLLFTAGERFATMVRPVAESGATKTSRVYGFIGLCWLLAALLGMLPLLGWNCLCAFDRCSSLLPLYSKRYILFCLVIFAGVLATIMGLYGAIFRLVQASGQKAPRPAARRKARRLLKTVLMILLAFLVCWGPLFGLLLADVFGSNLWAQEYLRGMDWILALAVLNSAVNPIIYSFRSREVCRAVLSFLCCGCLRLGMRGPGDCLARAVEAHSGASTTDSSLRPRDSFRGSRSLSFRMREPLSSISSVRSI

BJ [4] = assay: cytotoxicity toward BJ-TERT fibroblasts, dose response, cell-based, RAS-independent, luminescence (AID 1933); assay type: functional; conditions: Homo sapiens
INS1 = assay: beta cell apoptosis inhibitors, cytokine rescue, dose response, luminescence, retest (AID 449756); assay type: functional, cell-based; conditions: Rattus norvegicus;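 note: cell death triggered by IL-1 beta plus TNF-alpha plus IFN-gamma mixture; protective hits raise ATP signal compared with cytokine alone wells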
Beta-galactosidase = Beta-galactosidase (Escherichia coli, UniProt Q8VNN2); assay: PubChem AID 485352; assay type: functional
Sequence of Beta-galactosidase (Q8VNN2 whole entry): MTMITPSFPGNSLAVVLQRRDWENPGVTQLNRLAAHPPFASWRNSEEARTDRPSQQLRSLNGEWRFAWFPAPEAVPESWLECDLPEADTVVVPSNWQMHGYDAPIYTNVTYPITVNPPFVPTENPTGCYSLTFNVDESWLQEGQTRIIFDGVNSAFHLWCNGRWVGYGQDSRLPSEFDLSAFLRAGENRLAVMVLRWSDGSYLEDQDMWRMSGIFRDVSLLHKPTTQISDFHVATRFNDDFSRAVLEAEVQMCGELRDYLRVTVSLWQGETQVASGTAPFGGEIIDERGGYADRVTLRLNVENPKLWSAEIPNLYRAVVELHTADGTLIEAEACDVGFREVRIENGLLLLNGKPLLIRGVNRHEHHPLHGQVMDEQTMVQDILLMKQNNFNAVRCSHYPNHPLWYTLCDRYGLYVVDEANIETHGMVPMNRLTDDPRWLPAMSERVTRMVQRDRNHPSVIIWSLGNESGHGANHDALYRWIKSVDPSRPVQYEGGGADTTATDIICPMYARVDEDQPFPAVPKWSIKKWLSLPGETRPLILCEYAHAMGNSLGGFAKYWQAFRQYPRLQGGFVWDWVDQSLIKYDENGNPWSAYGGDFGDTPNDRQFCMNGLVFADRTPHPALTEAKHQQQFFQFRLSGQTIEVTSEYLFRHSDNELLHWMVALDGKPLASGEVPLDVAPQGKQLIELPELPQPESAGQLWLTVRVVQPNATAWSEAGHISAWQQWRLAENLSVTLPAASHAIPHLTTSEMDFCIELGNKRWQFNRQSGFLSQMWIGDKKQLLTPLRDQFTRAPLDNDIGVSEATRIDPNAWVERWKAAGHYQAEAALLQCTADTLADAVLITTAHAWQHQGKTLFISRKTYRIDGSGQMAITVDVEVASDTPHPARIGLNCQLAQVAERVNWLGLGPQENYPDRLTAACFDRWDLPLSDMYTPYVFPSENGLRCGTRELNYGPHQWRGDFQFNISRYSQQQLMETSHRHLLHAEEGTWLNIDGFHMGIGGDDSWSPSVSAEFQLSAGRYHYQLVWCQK

[5] = biological target: T1, Sphingosine 1-phosphate receptor 4; assay: Late stage fluorescence dose response cell-based screening assay for antagonists of the Sphingosine 1-Phosphate Receptor 4 (S1P4). [Related pubchem assays: 1524 (Confirmation screen (S1P4 antagonists).), 1510 (Primary screen (S1P4 antagonists).), 1853 (Summary AID (S1P4 antagonists).), 1692 (Dose response screen (S1P4 antagonists).)]; assay type: functional
[6] = biological target: T2, Heat shock factor protein 1 (Mus musculus, UniProt P38532); assay: inhibition of MG132-induced HSE-luciferase signal, confirmation, cell-based, NIH3T3, luminescence, dose retest (AID 2382); assay type: functional;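 note: NIH3T3 fibroblasts with HSF1-driven luciferase reporter stressed by proteasome inhibitor MG132; luminescence from HSF1-driven luciferase expression after 8 hours of MG132 stress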
T2 sequence (P38532 whole entry): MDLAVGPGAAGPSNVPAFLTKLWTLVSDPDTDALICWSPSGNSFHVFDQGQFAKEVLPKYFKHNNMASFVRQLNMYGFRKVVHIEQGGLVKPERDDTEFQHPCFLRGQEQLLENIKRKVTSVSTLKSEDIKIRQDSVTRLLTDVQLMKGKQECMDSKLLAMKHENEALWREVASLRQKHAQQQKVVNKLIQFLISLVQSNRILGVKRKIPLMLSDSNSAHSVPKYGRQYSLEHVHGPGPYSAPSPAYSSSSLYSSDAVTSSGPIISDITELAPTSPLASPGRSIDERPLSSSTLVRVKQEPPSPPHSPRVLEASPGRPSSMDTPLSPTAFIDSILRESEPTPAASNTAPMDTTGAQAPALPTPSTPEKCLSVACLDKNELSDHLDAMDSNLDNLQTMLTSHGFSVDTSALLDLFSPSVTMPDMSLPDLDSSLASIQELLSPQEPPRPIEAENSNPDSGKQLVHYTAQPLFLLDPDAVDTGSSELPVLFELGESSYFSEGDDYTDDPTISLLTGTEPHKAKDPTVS

[7] = cytotoxicity toward DRD oncogenic fibroblasts, dose response, cell-based, non-viral oncogenic, luminescence (AID 1934); assay type: functional; conditions: Homo sapiens
[8] = biological target: Sphingosine 1-phosphate receptor 1 (Homo sapiens, UniProt P21453); assay type: functional;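 note: Tango beta-arrestin reporter U2OS cells stimulated with S1P near its EC80; inhibitor potency meaning antagonism of receptor activation by the natural agonist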
Sequence of Sphingosine 1-phosphate receptor 1 (P21453 whole entry): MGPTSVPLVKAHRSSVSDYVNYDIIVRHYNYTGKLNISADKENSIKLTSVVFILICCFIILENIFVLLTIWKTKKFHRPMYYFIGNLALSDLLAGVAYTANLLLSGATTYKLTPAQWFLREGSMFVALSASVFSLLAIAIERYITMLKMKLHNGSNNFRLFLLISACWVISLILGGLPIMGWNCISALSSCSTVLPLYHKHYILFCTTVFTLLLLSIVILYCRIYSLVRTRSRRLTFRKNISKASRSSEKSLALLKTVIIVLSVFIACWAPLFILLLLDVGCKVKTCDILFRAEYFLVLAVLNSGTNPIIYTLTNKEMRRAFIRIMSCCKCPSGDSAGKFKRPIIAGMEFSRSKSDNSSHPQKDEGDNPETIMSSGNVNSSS

Beta Lactamase = Beta Lactamase (Pseudomonas aeruginosa, UniProt Q932Y6); assay: beta-lactamase reporter inhibitor potency, dose response, artefact control for TLR9-MyD88 binding inhibitor project, BLA reporter cells, FRET fluorescence (AID 588341); assay type: cell-based;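 note: cell based assay in CHO-K1 cells stably expressing beta-lactamase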
Sequence of Beta Lactamase (Q932Y6 whole entry): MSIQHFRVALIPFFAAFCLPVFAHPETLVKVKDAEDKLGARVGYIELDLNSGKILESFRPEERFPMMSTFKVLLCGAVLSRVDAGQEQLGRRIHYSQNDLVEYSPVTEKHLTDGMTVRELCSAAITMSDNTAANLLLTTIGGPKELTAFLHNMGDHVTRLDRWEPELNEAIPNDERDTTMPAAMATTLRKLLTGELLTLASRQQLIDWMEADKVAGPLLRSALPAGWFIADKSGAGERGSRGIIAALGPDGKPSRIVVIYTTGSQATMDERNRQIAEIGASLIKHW

[9] = biological target: Heat shock protein HSP 90-alpha (Homo sapiens, UniProt P07900); assay type: functional, organism-based
BJ [10] = assay: cytotoxicity toward BJ-TERT-LT-ST fibroblasts, dose response, cell-based, RAS-independent, luminescence (AID 1935); assay type: functional; conditions: Homo sapiens;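 note: BJ fibroblasts immortalized with TERT plus LT and ST oncogenes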
[11] = control 3'UTR Renilla luciferase suppression, dose response, counter-screen for Shn3 inhibitor project, cell-based, Clone20-Shn3RL, cherry-picked (AID 624133); assay type: functional
cells = assay type: functional, cell-based; conditions: HEK-CNG
[12] = ZM109 Env clade C HIV-1 fusion inhibitors, dose response, HeLa effector, CEM target cells, luciferase, cherry-pick (AID 652058); assay type: functional, cell-based
Jurkat = assay: antigen receptor-induced NF-kB inhibitors, dose response, Jurkat, luciferase reporter, luminescence, B- and T-cell (AID 489004); assay type: functional, cell-based; conditions: Homo sapiens;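 note: NF-kB luciferase reporter Jurkat cells stimulated with PMA plus ionomycin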
[13] = HepG2 cell cytotoxicity, dose response, cytotoxicity control for Shn3 inhibitor project, CellTiter-Glo, cherry-picked (AID 624134); assay type: functional, cell-based
[14] = Shn3 3'UTR reporter inhibitors, dose response, cell-based, Clone20 osteoblasts, firefly luciferase, cherry-picked (AID 624132); assay type: functional;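 note: firefly luciferase luminescence from reporter carrying the Shn3 3'UTR in osteoblasts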
Galanin receptor type 3 = biological target: T3, Galanin receptor type 3 (Homo sapiens, UniProt O60755); assay: Fluorescence-based cell-based primary high throughput dose response assay to identify antagonists of the Galanin Receptor 3 (GalR3).; assay type: functional
T3 sequence (O60755 whole entry): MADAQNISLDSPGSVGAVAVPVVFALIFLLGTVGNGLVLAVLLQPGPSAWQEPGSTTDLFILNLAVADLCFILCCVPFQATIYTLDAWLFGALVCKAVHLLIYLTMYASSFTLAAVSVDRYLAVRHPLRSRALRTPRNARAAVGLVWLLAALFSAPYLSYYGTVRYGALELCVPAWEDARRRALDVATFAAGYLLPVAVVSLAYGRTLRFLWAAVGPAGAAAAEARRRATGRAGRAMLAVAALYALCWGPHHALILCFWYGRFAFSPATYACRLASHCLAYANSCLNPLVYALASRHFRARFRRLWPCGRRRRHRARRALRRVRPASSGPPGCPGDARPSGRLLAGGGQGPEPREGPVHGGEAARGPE

[15] = inhibitors of clade B AD8 Env fusion, dose response, cell-based, cherry-pick (AID 652062); assay type: functional;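 note: luciferase signal from cell-cell fusion driven by HIV-1 clade B AD8 Env; potency is for inhibitors of fusion seen as a drop in luminescence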
[16] = cytotoxicity in HEK-293T NF-kB-Luc cells, dose response, cytotoxicity control for B/T-cell NF-kB inhibitor project, cell-based, uHTS hits (AID 489019); assay type: functional;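 note: IC50 reflects cytotoxicity as loss of cell viability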

O=[N+]([O-])c1cnc(Sc2ccncn2)s1
IC50 (CHO): 1.29 µM (active)
IC50 [1]: 5.67 µM (active)
EC50 (BJ [2]): 8.38 µM (active)
IC50 [3]: 0.86 µM (active)
EC50 (BJ [4]): 2.21 µM (active)
AC50 (INS1): 4.35 µM (active)
EC50 (Beta-galactosidase): > 40 µM (inactive)
IC50 [5]: 1.72 µM (not active)
EC50 [6]: 4.12 µM (active)
EC50 [7]: 5.64 µM (active)
IC50 [8]: 15 µM (not active)
IC50 (Beta Lactamase): > 49.7 µM (inactive)
AC50 [9]: 1.49 µM (active)
EC50 (BJ [10]): 4.97 µM (inconclusive)

COc1cc(CSc2nnnn2-c2ccc(C)cc2)cc(OC)c1OC
AC50 [11]: 2.16 µM (active)
EC50 (cells): > 29.9 µM (inactive)
AC50 [12]: 4.94 µM (active)
AC50 (INS1): 2.98 µM (active)
IC50 (Jurkat): > 80 µM (inactive)
AC50 [13]: 2.51 µM (active)
AC50 [14]: 1.02 µM (active)
IC50 (Galanin receptor type 3): 1.22 µM (active)
AC50 [15]: 4.54 µM (active)
IC50 [16]: > 80 µM (inactive)
